Data taken from ChEMBL document CHEMBL1909046, “DrugMatrix in vitro pharmacology data”.

Biological target: Sodium-dependent dopamine transporter (Homo sapiens, UniProt Q01959)
Assay: DRUGMATRIX: Dopamine Transporter radioligand binding (ligand: [125I] RTI-55)
Format: cell membranes, CHO-K1, Membrane
Conditions: cho-k1; Not Active = under 50% inhibition at 10 µM

Sequence of Sodium-dependent dopamine transporter (Q01959 whole entry): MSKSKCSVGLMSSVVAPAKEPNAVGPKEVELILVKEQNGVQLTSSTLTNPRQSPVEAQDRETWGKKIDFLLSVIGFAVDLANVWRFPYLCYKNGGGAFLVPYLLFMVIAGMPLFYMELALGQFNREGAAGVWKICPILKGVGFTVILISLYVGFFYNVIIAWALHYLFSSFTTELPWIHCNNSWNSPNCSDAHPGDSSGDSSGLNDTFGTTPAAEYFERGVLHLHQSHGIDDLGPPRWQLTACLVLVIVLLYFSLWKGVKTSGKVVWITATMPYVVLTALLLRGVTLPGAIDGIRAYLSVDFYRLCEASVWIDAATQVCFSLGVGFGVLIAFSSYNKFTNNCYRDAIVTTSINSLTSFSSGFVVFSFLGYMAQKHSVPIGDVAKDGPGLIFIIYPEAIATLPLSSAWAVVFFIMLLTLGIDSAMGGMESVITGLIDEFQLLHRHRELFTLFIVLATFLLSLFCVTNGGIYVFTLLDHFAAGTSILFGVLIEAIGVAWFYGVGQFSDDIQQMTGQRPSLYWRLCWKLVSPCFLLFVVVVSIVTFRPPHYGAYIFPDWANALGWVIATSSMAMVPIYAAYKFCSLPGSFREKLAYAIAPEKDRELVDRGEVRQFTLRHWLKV

Q: With `CCO` [ALCOHOL] as the compound, how does the IC50 read?
A: Its IC50 is “Not Active”.

Q: For `C[C@H](C(=O)O)c1ccc2oc(-c3ccc(F)cc3)nc2c1` [FLUNOXAPROFEN], which IC50 is on record?
A: Its IC50 is “Not Active”.

Q: For `c1ccc(Cn2ccnc2)cc1`, which IC50 is on record?
A: Its IC50 is “Not Active”.

Q: With `C[C@]12CC[C@@H](O)C[C@@H]1CC[C@@H]1[C@@H]2CC[C@]2(C)C(=O)CC[C@@H]12` [ANDROSTERONE] as the compound, how does the IC50 read?
A: Its IC50 is “Not Active”.

Q: With `Nc1nc(N)c2nc(CNc3ccc(C(=O)N[C@@H](CCC(=O)O)C(=O)O)cc3)cnc2n1` [AMINOPTERIN] as the compound, how does the IC50 read?
A: The IC50 was “Not Active”.

Q: For `CCN1CCN(c2cc3c(cc2F)c(=O)c(C(=O)O)cn3C2CC2)CC1` [ENROFLOXACIN], which IC50 is on record?
A: The IC50 was “Not Active”.

Q: For `CC(C)Cc1ccc([C@H](C)C(=O)O)cc1` [DEXIBUPROFEN], which IC50 is on record?
A: The IC50 was “Not Active”.

Tested on: not listed separately
Assay: DRUGMATRIX: GABAA, Muscimol, Central radioligand binding (ligand: [3H] Muscimol)
Format: cell membranes, Rattus norvegicus, Wistar, Brain, Membrane
Conditions: Not Active = under 50% inhibition at 10 µM

Q: Which IC50 does the source give for `CCO` [ALCOHOL] here?
A: The IC50 was “Not Active”.

Q: What about the Ki of the same compound?
A: Its Ki is “Not Active”.

Q: Which results are given for `C[C@H](C(=O)O)c1ccc2oc(-c3ccc(F)cc3)nc2c1` [FLUNOXAPROFEN]?
A: IC50: Not Active; Ki: Not Active

Q: Which IC50 does the source give for `c1ccc(Cn2ccnc2)cc1` here?
A: The IC50 was “Not Active”.

Q: What about the Ki of the same compound?
A: Its Ki is “Not Active”.

Q: What does the source list for `C[C@]12CC[C@@H](O)C[C@@H]1CC[C@@H]1[C@@H]2CC[C@]2(C)C(=O)CC[C@@H]12` [ANDROSTERONE]?
A: IC50: Not Active; Ki: Not Active

Q: With `Nc1nc(N)c2nc(CNc3ccc(C(=O)N[C@@H](CCC(=O)O)C(=O)O)cc3)cnc2n1` [AMINOPTERIN] as the compound, how does the IC50 read?
A: The IC50 was “Not Active”.

Q: And the Ki?
A: Its Ki is “Not Active”.

Q: What does the source list for `CCN1CCN(c2cc3c(cc2F)c(=O)c(C(=O)O)cn3C2CC2)CC1` [ENROFLOXACIN]?
A: IC50: Not Active; Ki: Not Active

Q: Which results are given for `CC(C)Cc1ccc([C@H](C)C(=O)O)cc1` [DEXIBUPROFEN]?
A: IC50: Not Active; Ki: Not Active

Biological target: Glycine receptor (Rattus norvegicus, UniProt P22771+P24524+P07727+P20781); further: in other assays of this panel Not Active means under 50% inhibition at 10 µM
Assay: not given
Format: cell membranes, Wistar, Spinal cord, Membrane
Conditions: not given

Q: With `CCO` [ALCOHOL] as the compound, how does the IC50 read?
A: Its IC50 is “Not Active”.

Q: For `C[C@H](C(=O)O)c1ccc2oc(-c3ccc(F)cc3)nc2c1` [FLUNOXAPROFEN], which IC50 is on record?
A: Its IC50 is “Not Active”.

Q: For `c1ccc(Cn2ccnc2)cc1`, which IC50 is on record?
A: Its IC50 is “Not Active”.

Q: Which IC50 does the source give for `C[C@]12CC[C@@H](O)C[C@@H]1CC[C@@H]1[C@@H]2CC[C@]2(C)C(=O)CC[C@@H]12` [ANDROSTERONE] here?
A: Its IC50 is “Not Active”.

Q: For `Nc1nc(N)c2nc(CNc3ccc(C(=O)N[C@@H](CCC(=O)O)C(=O)O)cc3)cnc2n1` [AMINOPTERIN], which IC50 is on record?
A: The IC50 was “Not Active”.

Q: With `CCN1CCN(c2cc3c(cc2F)c(=O)c(C(=O)O)cn3C2CC2)CC1` [ENROFLOXACIN] as the compound, how does the IC50 read?
A: Its IC50 is “Not Active”.

Q: Which IC50 does the source give for `CC(C)Cc1ccc([C@H](C)C(=O)O)cc1` [DEXIBUPROFEN] here?
A: The IC50 was “Not Active”.

Biological target: Kappa-type opioid receptor (Homo sapiens, UniProt P41145)
Assay: DRUGMATRIX: Opiate kappa (OP2, KOP) radioligand binding (ligand: [3H] Diprenorphine)
Format: cell membranes, HEK293, Membrane
Conditions: hek293; Not Active = under 50% inhibition at 10 µM

Sequence of Kappa-type opioid receptor (P41145 whole entry): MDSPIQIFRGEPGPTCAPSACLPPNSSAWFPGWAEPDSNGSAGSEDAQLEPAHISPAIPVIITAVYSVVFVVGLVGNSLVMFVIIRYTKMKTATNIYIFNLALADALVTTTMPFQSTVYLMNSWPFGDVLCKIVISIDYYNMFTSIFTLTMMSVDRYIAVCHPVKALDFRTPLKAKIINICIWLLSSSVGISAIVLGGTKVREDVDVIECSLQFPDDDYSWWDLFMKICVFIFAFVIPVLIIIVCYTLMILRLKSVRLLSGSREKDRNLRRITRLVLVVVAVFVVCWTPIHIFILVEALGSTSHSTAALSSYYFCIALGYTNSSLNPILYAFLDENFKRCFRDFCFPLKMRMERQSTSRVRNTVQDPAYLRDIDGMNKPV

Q: For `CCO` [ALCOHOL], which IC50 is on record?
A: The IC50 was “Not Active”.

Q: With `C[C@H](C(=O)O)c1ccc2oc(-c3ccc(F)cc3)nc2c1` [FLUNOXAPROFEN] as the compound, how does the IC50 read?
A: The IC50 was “Not Active”.

Q: With `c1ccc(Cn2ccnc2)cc1` as the compound, how does the IC50 read?
A: Its IC50 is “Not Active”.

Q: For `C[C@]12CC[C@@H](O)C[C@@H]1CC[C@@H]1[C@@H]2CC[C@]2(C)C(=O)CC[C@@H]12` [ANDROSTERONE], which IC50 is on record?
A: Its IC50 is “Not Active”.

Q: Which IC50 does the source give for `Nc1nc(N)c2nc(CNc3ccc(C(=O)N[C@@H](CCC(=O)O)C(=O)O)cc3)cnc2n1` [AMINOPTERIN] here?
A: Its IC50 is “Not Active”.

Q: For `CCN1CCN(c2cc3c(cc2F)c(=O)c(C(=O)O)cn3C2CC2)CC1` [ENROFLOXACIN], which IC50 is on record?
A: Its IC50 is “Not Active”.

Q: For `CC(C)Cc1ccc([C@H](C)C(=O)O)cc1` [DEXIBUPROFEN], which IC50 is on record?
A: The IC50 was “Not Active”.

Biological target: T1, Neutrophil elastase (Homo sapiens, UniProt P08246);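 further: inhibition of neutrophil elastase enzyme activity, measured with a p-nitroanilide-linked peptide substrate; in other assays of this panel Not Active means under 50% inhibition at 10 µM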
T1 sequence (P08246 whole entry): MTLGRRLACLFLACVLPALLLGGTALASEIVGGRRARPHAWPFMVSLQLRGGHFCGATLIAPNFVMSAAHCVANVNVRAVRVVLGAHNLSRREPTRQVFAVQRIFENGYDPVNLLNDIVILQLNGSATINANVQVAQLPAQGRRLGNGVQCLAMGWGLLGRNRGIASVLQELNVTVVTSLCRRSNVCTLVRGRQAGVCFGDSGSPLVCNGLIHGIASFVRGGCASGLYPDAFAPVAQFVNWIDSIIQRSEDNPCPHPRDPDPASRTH
Assay: not given
Format: tissue-based
Conditions: not given

Q: For `CCO` [ALCOHOL], which IC50 is on record?
A: Its IC50 is “Not Active”.

Q: Which IC50 does the source give for `C[C@H](C(=O)O)c1ccc2oc(-c3ccc(F)cc3)nc2c1` [FLUNOXAPROFEN] here?
A: The IC50 was “Not Active”.

Q: For `c1ccc(Cn2ccnc2)cc1`, which IC50 is on record?
A: The IC50 was “Not Active”.

Q: For `C[C@]12CC[C@@H](O)C[C@@H]1CC[C@@H]1[C@@H]2CC[C@]2(C)C(=O)CC[C@@H]12` [ANDROSTERONE], which IC50 is on record?
A: The IC50 was “Not Active”.

Q: Which IC50 does the source give for `Nc1nc(N)c2nc(CNc3ccc(C(=O)N[C@@H](CCC(=O)O)C(=O)O)cc3)cnc2n1` [AMINOPTERIN] here?
A: Its IC50 is “Not Active”.

Q: With `CCN1CCN(c2cc3c(cc2F)c(=O)c(C(=O)O)cn3C2CC2)CC1` [ENROFLOXACIN] as the compound, how does the IC50 read?
A: The IC50 was “Not Active”.

Q: For `CC(C)Cc1ccc([C@H](C)C(=O)O)cc1` [DEXIBUPROFEN], which IC50 is on record?
A: The IC50 was “Not Active”.

Biological target: Tyrosine-protein kinase Fyn (Homo sapiens, UniProt P06241);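 further: enzymatic inhibition of Fyn kinase activity measured with Poly(Glu:Tyr) as the phosphorylation substrate; in other assays of this panel Not Active means under 50% inhibition at 10 µM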
Assay: biochemical
Format: cell-based, Insect cells
Conditions: insect cells

Sequence of Tyrosine-protein kinase Fyn (P06241 whole entry): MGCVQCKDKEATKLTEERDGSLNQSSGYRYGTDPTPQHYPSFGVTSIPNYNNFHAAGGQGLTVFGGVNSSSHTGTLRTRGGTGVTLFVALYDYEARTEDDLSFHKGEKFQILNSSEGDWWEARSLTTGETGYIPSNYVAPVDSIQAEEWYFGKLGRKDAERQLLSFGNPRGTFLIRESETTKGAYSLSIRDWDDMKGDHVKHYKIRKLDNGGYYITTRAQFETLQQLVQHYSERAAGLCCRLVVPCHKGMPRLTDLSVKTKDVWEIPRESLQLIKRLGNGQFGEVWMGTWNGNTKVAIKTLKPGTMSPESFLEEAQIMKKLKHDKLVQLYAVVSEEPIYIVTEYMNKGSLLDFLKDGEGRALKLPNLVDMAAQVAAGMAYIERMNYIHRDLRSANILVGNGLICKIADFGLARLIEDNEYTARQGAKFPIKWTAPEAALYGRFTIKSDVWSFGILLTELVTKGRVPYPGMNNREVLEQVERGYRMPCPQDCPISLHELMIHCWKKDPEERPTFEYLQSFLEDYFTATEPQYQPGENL

Q: With `CCO` [ALCOHOL] as the compound, how does the IC50 read?
A: Its IC50 is “Not Active”.

Q: Which IC50 does the source give for `C[C@H](C(=O)O)c1ccc2oc(-c3ccc(F)cc3)nc2c1` [FLUNOXAPROFEN] here?
A: Its IC50 is “Not Active”.

Q: Which IC50 does the source give for `c1ccc(Cn2ccnc2)cc1` here?
A: Its IC50 is “Not Active”.

Q: Which IC50 does the source give for `C[C@]12CC[C@@H](O)C[C@@H]1CC[C@@H]1[C@@H]2CC[C@]2(C)C(=O)CC[C@@H]12` [ANDROSTERONE] here?
A: The IC50 was “Not Active”.

Q: With `Nc1nc(N)c2nc(CNc3ccc(C(=O)N[C@@H](CCC(=O)O)C(=O)O)cc3)cnc2n1` [AMINOPTERIN] as the compound, how does the IC50 read?
A: The IC50 was “Not Active”.

Q: With `CCN1CCN(c2cc3c(cc2F)c(=O)c(C(=O)O)cn3C2CC2)CC1` [ENROFLOXACIN] as the compound, how does the IC50 read?
A: The IC50 was “Not Active”.

Q: Which IC50 does the source give for `CC(C)Cc1ccc([C@H](C)C(=O)O)cc1` [DEXIBUPROFEN] here?
A: The IC50 was “Not Active”.

Biological target: Estrogen receptor beta (Homo sapiens, UniProt Q92731); further: in other assays of this panel Not Active means under 50% inhibition at 10 µM
Assay: not given
Conditions: sf9

Sequence of Estrogen receptor beta (Q92731 whole entry): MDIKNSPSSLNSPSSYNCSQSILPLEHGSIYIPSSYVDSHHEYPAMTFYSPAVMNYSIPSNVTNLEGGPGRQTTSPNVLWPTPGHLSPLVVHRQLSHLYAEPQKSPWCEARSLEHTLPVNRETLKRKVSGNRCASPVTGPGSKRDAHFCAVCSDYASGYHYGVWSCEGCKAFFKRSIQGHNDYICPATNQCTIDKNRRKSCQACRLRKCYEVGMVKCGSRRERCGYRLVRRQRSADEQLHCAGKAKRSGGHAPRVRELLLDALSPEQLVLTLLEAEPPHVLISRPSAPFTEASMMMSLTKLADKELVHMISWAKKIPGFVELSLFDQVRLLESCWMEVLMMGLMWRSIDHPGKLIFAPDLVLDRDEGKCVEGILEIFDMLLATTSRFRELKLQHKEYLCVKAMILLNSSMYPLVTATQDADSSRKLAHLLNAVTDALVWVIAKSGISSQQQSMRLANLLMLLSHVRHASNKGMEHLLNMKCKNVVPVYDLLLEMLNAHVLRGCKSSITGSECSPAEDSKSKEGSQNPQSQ

Q: Which IC50 does the source give for `CCO` [ALCOHOL] here?
A: The IC50 was “Not Active”.

Q: Which IC50 does the source give for `C[C@H](C(=O)O)c1ccc2oc(-c3ccc(F)cc3)nc2c1` [FLUNOXAPROFEN] here?
A: Its IC50 is “Not Active”.

Q: Which IC50 does the source give for `c1ccc(Cn2ccnc2)cc1` here?
A: Its IC50 is “Not Active”.

Q: For `C[C@]12CC[C@@H](O)C[C@@H]1CC[C@@H]1[C@@H]2CC[C@]2(C)C(=O)CC[C@@H]12` [ANDROSTERONE], which IC50 is on record?
A: The IC50 was “Not Active”.

Q: With `Nc1nc(N)c2nc(CNc3ccc(C(=O)N[C@@H](CCC(=O)O)C(=O)O)cc3)cnc2n1` [AMINOPTERIN] as the compound, how does the IC50 read?
A: The IC50 was “Not Active”.

Q: For `CCN1CCN(c2cc3c(cc2F)c(=O)c(C(=O)O)cn3C2CC2)CC1` [ENROFLOXACIN], which IC50 is on record?
A: Its IC50 is “Not Active”.

Q: With `CC(C)Cc1ccc([C@H](C)C(=O)O)cc1` [DEXIBUPROFEN] as the compound, how does the IC50 read?
A: The IC50 was “Not Active”.

Biological target: T2, Glucocorticoid receptor (Homo sapiens, UniProt P04150); further: in other assays of this panel Not Active means under 50% inhibition at 10 µM
T2 sequence (P04150 whole entry): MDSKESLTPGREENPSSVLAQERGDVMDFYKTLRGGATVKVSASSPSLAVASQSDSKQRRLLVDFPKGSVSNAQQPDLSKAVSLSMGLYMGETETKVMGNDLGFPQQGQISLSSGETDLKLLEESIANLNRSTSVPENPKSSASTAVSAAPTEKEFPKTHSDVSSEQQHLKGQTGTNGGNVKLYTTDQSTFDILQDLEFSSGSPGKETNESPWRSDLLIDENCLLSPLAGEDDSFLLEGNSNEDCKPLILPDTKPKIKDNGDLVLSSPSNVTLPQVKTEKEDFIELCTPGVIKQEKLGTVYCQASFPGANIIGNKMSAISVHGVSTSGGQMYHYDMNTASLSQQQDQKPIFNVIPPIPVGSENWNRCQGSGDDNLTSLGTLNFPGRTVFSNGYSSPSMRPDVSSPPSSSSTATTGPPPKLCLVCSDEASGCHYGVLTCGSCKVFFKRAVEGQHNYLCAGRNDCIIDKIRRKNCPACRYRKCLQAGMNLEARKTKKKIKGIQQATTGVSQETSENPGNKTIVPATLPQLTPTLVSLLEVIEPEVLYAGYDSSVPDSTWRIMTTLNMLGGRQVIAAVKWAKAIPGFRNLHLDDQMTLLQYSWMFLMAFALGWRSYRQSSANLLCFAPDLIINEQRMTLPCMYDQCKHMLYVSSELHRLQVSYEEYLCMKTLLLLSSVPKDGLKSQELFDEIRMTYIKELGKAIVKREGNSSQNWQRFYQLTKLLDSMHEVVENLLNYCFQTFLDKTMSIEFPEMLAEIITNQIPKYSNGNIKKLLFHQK
Assay: not given
Conditions: hela s3

Q: For `CCO` [ALCOHOL], which IC50 is on record?
A: Its IC50 is “Not Active”.

Q: For `C[C@H](C(=O)O)c1ccc2oc(-c3ccc(F)cc3)nc2c1` [FLUNOXAPROFEN], which IC50 is on record?
A: The IC50 was “Not Active”.

Q: With `c1ccc(Cn2ccnc2)cc1` as the compound, how does the IC50 read?
A: Its IC50 is “Not Active”.

Q: With `C[C@]12CC[C@@H](O)C[C@@H]1CC[C@@H]1[C@@H]2CC[C@]2(C)C(=O)CC[C@@H]12` [ANDROSTERONE] as the compound, how does the IC50 read?
A: The IC50 was “Not Active”.

Q: With `Nc1nc(N)c2nc(CNc3ccc(C(=O)N[C@@H](CCC(=O)O)C(=O)O)cc3)cnc2n1` [AMINOPTERIN] as the compound, how does the IC50 read?
A: The IC50 was “Not Active”.

Q: Which IC50 does the source give for `CCN1CCN(c2cc3c(cc2F)c(=O)c(C(=O)O)cn3C2CC2)CC1` [ENROFLOXACIN] here?
A: The IC50 was “Not Active”.

Q: For `CC(C)Cc1ccc([C@H](C)C(=O)O)cc1` [DEXIBUPROFEN], which IC50 is on record?
A: Its IC50 is “Not Active”.
